According to PubChem BioAssay (NCI):
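Values below derive from 48-hour exposures of cells grown in 96-well plates, with endpoints linearly interpolated between the two concentrations bracketing the appropriate inhibition level. GI50 is the concentration that inhibits growth by half. TGI: total growth inhibition.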

Each compound was assayed on U251 CNS (assay: inhibition of tumour cell growth, NCI panel, 48 h).
`Clc1ccc2c(c1)-c1c3c(nn1-c1ccccc1)-c1ccccc1SC3O2` (configuration not stated) showed a TGI of over 100 µM.
`O=C1OC2CCCC[C@@H]2C2C[C@]34CCCCC3[C@@H](C(=O)O4)C12` (some centres not stated) was tested, and the TGI was over 100 µM.
In the case of `CN(C)c1cc[c]([Sn]([c]2ccc(N(C)C)cc2)([c]2ccc(N(C)C)cc2)[c]2ccc(N(C)C)cc2)cc1`, the GI50 is reported as 8.02 µM and the TGI is reported as 21.2 µM.
`COc1cc(/C=C/c2cc(/C=C/c3ccc(O)c(OC)c3)n(C(=O)Nc3ccc(C)cc3C)n2)ccc1O` gave a GI50 of 0.401 µM and a TGI of 1.47 µM.
Compound `CCN(CC)c1ccc(N=Nc2ccc(-c3nc4ccc[n+](C)c4s3)cc2)cc1` has a TGI of 27.1 µM.
`NC(=O)NCc1c(C(N)=O)ncn1Cc1ccccc1` gave a TGI of over 100 µM.
`O=C1CSC(/C(=N/Nc2ccccc2)c2nc3ccccc3[nH]2)=N1` was tested, and the TGI was over 100 µM.
For `O=C(/C=C\c1ccc(NCc2ccc(C(=O)O)cc2)cc1)CCl`, the GI50 was 13.9 µM and the TGI was 27 µM.
`COc1cccc(C#Cc2ccccc2C#CCCCCO)c1` showed a GI50 of 8.41 µM and a TGI of 22.3 µM.
`O=C1/C(=C/c2cccc([N+](=O)[O-])c2)COc2ccc(Br)cc21` showed a TGI of over 100 µM.
Work on `COc1c(CCl)cc(-c2cc(=O)c3ccccc3s2)cc1CCl` yielded a TGI of over 59.8 µM.
`CSC(C1c2ccccc2N(c2ccc(C)cc2)c2[nH]c(=O)n(C)c(=O)c21)S(=O)(=O)c1ccc(C)cc1` (configuration not stated) was tested, and the TGI was over 100 µM.
Work on `CCOC(=O)NC(=O)c1cn(CCCOC(=O)CCCCCCCCCCC(=O)OCCCn2cc(C(=O)NC(=O)OCC)c(=O)[nH]c2=O)c(=O)[nH]c1=O` yielded a TGI of over 100 µM.
With `COc1cc2[nH]c(C(=O)c3cc(OC)c(OC)c(OC)c3)c(N)c2cc1C#CC1CC1` the GI50 was 4.74 µM and the TGI was over 100 µM.
`COc1ccc(/C=C/C(=O)C(CC2CCC2)C(=O)/C=C/c2ccc(OC)c(OC)c2)cc1OC` gave a GI50 of 1.38 µM and a TGI of 2.79 µM.
`O=c1cc(NC2CCN(CCCc3ccccc3)CC2)c2cc(Cl)ccc2o1` showed a GI50 of 9.19 µM and a TGI of 21.3 µM.
In the case of `COc1cc(/C=C(\C#N)c2ccccc2)cc(OC)c1`, the TGI is reported as over 100 µM.
In the case of `CC(=O)N[C@H]1CSSC[C@@H](C(N)=O)NC(=O)[C@H](C(C)C)NC(=O)[C@H](C)NC(=O)[C@H](Cc2cnc[nH]2)NC1=O`, the GI50 is reported as over 100 µM and the TGI is reported as over 100 µM.
In the case of `O=C1CC2c3ccccc3CCC2c2ccccc21` (configuration not stated), the TGI is reported as over 100 µM.
For `CCCCCCCCCCCC(=O)OCC1OC(OC)C(NC(=O)N(CCCl)N=O)C(O)C1O` (configuration not stated), the TGI was 26.1 µM.
In the case of `C=CC/C=C/C/C=C/CCCCCCCc1cccc(O)c1C(=O)O`, the TGI is reported as 46 µM.
`COc1cc(NC(C)CCCN)c2nccc(C)c2c1` (configuration not stated) showed a TGI of 56.8 µM.
`c1ccc(C2Nc3ccccc3C3OCCCC23)cc1` (configuration not stated) gave a TGI of 38.3 µM.
`CCOc1cc(C(C)(C)C)ccc1C1=N[C@@](C)(c2ccc(Cl)cc2)[C@@](C)(c2ccc(Cl)cc2)N1C(=O)N1CCN(CCCS(C)(=O)=O)CC1` was tested, and the GI50 was 12.2 µM and the TGI was 45.9 µM.

These compounds were tested on SF-295 CNS (assay: inhibition of tumour cell growth, NCI panel, 48 h).
Compound `Nc1ccc(-c2nc3ccc(Cc4ccc5nc(-c6ccc(N)cc6)[nH]c5c4)cc3[nH]2)cc1` has a GI50 of 12.8 µM and a TGI of 32.4 µM.
`O=C1[C@@H]2C(c3ccccc3F)=NO[C@@H]2C(=O)N1c1ccc(Cc2ccc(N3C(=O)[C@H]4C(c5ccccc5F)=NO[C@H]4C3=O)cc2)cc1` showed a TGI of over 100 µM.
In the case of `Cn1c2ccccc2c(=O)c2ccc(Cl)cc21`, the TGI is reported as over 10 µM.
`CC(CO)(CO)NCCCCn1ccc2c1C(=O)c1c(c(O)c3ccccc3c1O)C2=O` was tested, and the GI50 was 11.2 µM and the TGI was 26.6 µM.
`Clc1ccc2c(c1)-c1c3c(nn1-c1ccccc1)-c1ccccc1SC3O2` (configuration not stated) showed a TGI of over 100 µM.
Work on `O=C1OC2CCCC[C@@H]2C2C[C@]34CCCCC3[C@@H](C(=O)O4)C12` (some centres not stated) yielded a TGI of over 100 µM.
Compound `CN(C)c1cc[c]([Sn]([c]2ccc(N(C)C)cc2)([c]2ccc(N(C)C)cc2)[c]2ccc(N(C)C)cc2)cc1` has a GI50 of 10.9 µM and a TGI of 25.7 µM.
`CCN(CC)c1ccc(N=Nc2ccc(-c3nc4ccc[n+](C)c4s3)cc2)cc1` was tested, and the TGI was 37 µM.
Compound `NC(=O)NCc1c(C(N)=O)ncn1Cc1ccccc1` has a TGI of over 100 µM.
Compound `O=C1CSC(/C(=N/Nc2ccccc2)c2nc3ccccc3[nH]2)=N1` has a TGI of 58.5 µM.
With `Cc1[nH]c2ccccc2c(=O)c1CC=C(Cl)Cl` the GI50 was 32 µM and the TGI was over 100 µM.
In the case of `C1CCC([PH+](C2CCCCC2)C2CCCCC2[PH+](C2CCCCC2)C2CCCCC2)CC1.O=C(C1[CH-]CCCC1)C1CCCC[N-]1.[Au]` (configuration not stated), the GI50 is reported as 0.262 µM and the TGI is reported as 1.09 µM.
`O=C(c1ccccc1)C1OC12C(=O)Nc1ccccc12` (configuration not stated) showed a TGI of 81.8 µM.
`O=C(/C=C\c1ccc(NCc2ccc(C(=O)O)cc2)cc1)CCl` showed a GI50 of 17.5 µM and a TGI of 34.3 µM.
Compound `COc1cccc(C#Cc2ccccc2C#CCCCCO)c1` has a GI50 of 7.94 µM and a TGI of 22.1 µM.
Compound `CC(C)C[C@H](NC(=O)/C=C/Cn1ccc2ccccc2c1=O)B(O)O` has a GI50 of 2.75 µM and a TGI of 15.1 µM.
Work on `O=C1/C(=C/c2cccc([N+](=O)[O-])c2)COc2ccc(Br)cc21` yielded a TGI of over 100 µM.
For `COc1cccc2c(=O)c3c(sc12)c(N1CCNCC1)nc1ccccc13`, the GI50 was 1.82 µM and the TGI was 3.37 µM.
Work on `COc1c(CCl)cc(-c2cc(=O)c3ccccc3s2)cc1CCl` yielded a TGI of 36.1 µM.
`CSC(C1c2ccccc2N(c2ccc(C)cc2)c2[nH]c(=O)n(C)c(=O)c21)S(=O)(=O)c1ccc(C)cc1` (configuration not stated) showed a TGI of over 100 µM.
In the case of `CCOC(=O)NC(=O)c1cn(CCCOC(=O)CCCCCCCCCCC(=O)OCCCn2cc(C(=O)NC(=O)OCC)c(=O)[nH]c2=O)c(=O)[nH]c1=O`, the TGI is reported as over 100 µM.
For `COc1cc2[nH]c(C(=O)c3cc(OC)c(OC)c(OC)c3)c(N)c2cc1C#CC1CC1`, the GI50 was 1.66 µM and the TGI was over 100 µM.
`COc1ccc(/C=C/C(=O)C(CC2CCC2)C(=O)/C=C/c2ccc(OC)c(OC)c2)cc1OC` gave a GI50 of 2.5 µM and a TGI of 7.22 µM.
Compound `O=c1cc(NC2CCN(CCCc3ccccc3)CC2)c2cc(Cl)ccc2o1` has a GI50 of 15.1 µM and a TGI of 29.9 µM.
Work on `COc1cc(/C=C(\C#N)c2ccccc2)cc(OC)c1` yielded a TGI of 73.7 µM.
In the case of `CC(=O)N[C@H]1CSSC[C@@H](C(N)=O)NC(=O)[C@H](C(C)C)NC(=O)[C@H](C)NC(=O)[C@H](Cc2cnc[nH]2)NC1=O`, the GI50 is reported as over 100 µM and the TGI is reported as over 100 µM.
`O=C1CC2c3ccccc3CCC2c2ccccc21` (configuration not stated) gave a TGI of 49.7 µM.
`CCCCCCCCCCCC(=O)OCC1OC(OC)C(NC(=O)N(CCCl)N=O)C(O)C1O` (configuration not stated) was tested, and the TGI was 20.8 µM.
`C=CC/C=C/C/C=C/CCCCCCCc1cccc(O)c1C(=O)O` was tested, and the TGI was over 100 µM.
`COc1cc(NC(C)CCCN)c2nccc(C)c2c1` (configuration not stated) gave a TGI of 35.4 µM.
With `CCCCCCCCCCCCCCCCCCOc1ccccc1CC(=O)OCC[N+]1(C)CCCC1` the GI50 was 2.83 µM and the TGI was 8.8 µM.
In the case of `c1ccc(C2Nc3ccccc3C3OCCCC23)cc1` (configuration not stated), the TGI is reported as 37.4 µM.
In the case of `CCOc1cc(C(C)(C)C)ccc1C1=N[C@@](C)(c2ccc(Cl)cc2)[C@@](C)(c2ccc(Cl)cc2)N1C(=O)N1CCN(CCCS(C)(=O)=O)CC1`, the GI50 is reported as 4.13 µM and the TGI is reported as 15.2 µM.

What follows are compounds tested on M14 melanoma (assay: inhibition of tumour cell growth, NCI panel, 48 h).
Compound `O=C1[C@@H]2C(c3ccccc3F)=NO[C@@H]2C(=O)N1c1ccc(Cc2ccc(N3C(=O)[C@H]4C(c5ccccc5F)=NO[C@H]4C3=O)cc2)cc1` has a TGI of over 100 µM.
In the case of `CC(CO)(CO)NCCCCn1ccc2c1C(=O)c1c(c(O)c3ccccc3c1O)C2=O`, the GI50 is reported as 1.73 µM and the TGI is reported as 3.41 µM.
For `O=C1OC2CCCC[C@@H]2C2C[C@]34CCCCC3[C@@H](C(=O)O4)C12` (some centres not stated), the TGI was over 100 µM.
Work on `CN(C)c1cc[c]([Sn]([c]2ccc(N(C)C)cc2)([c]2ccc(N(C)C)cc2)[c]2ccc(N(C)C)cc2)cc1` yielded a GI50 of 9.18 µM and a TGI of 21.6 µM.
For `CCN(CC)c1ccc(N=Nc2ccc(-c3nc4ccc[n+](C)c4s3)cc2)cc1`, the TGI was 37.6 µM.
With `NC(=O)NCc1c(C(N)=O)ncn1Cc1ccccc1` the TGI was over 100 µM.
For `O=C1CSC(/C(=N/Nc2ccccc2)c2nc3ccccc3[nH]2)=N1`, the TGI was over 100 µM.
In the case of `Cc1[nH]c2ccccc2c(=O)c1CC=C(Cl)Cl`, the GI50 is reported as over 100 µM and the TGI is reported as over 100 µM.
`C1CCC([PH+](C2CCCCC2)C2CCCCC2[PH+](C2CCCCC2)C2CCCCC2)CC1.O=C(C1[CH-]CCCC1)C1CCCC[N-]1.[Au]` (configuration not stated) was tested, and the GI50 was 0.26 µM and the TGI was 1.4 µM.
Compound `O=C(c1ccccc1)C1OC12C(=O)Nc1ccccc12` (configuration not stated) has a TGI of 63 µM.
Compound `O=C(/C=C\c1ccc(NCc2ccc(C(=O)O)cc2)cc1)CCl` has a GI50 of 15 µM and a TGI of 35.3 µM.
Work on `CC(C)C[C@H](NC(=O)/C=C/Cn1ccc2ccccc2c1=O)B(O)O` yielded a GI50 of 2.92 µM and a TGI of 10.1 µM.
Compound `COc1cccc2c(=O)c3c(sc12)c(N1CCNCC1)nc1ccccc13` has a GI50 of 1.86 µM and a TGI of 3.48 µM.
For `COc1c(CCl)cc(-c2cc(=O)c3ccccc3s2)cc1CCl`, the TGI was over 100 µM.
With `CSC(C1c2ccccc2N(c2ccc(C)cc2)c2[nH]c(=O)n(C)c(=O)c21)S(=O)(=O)c1ccc(C)cc1` (configuration not stated) the TGI was over 100 µM.
`CCOC(=O)NC(=O)c1cn(CCCOC(=O)CCCCCCCCCCC(=O)OCCCn2cc(C(=O)NC(=O)OCC)c(=O)[nH]c2=O)c(=O)[nH]c1=O` was tested, and the TGI was over 100 µM.
With `COc1cc2[nH]c(C(=O)c3cc(OC)c(OC)c(OC)c3)c(N)c2cc1C#CC1CC1` the GI50 was 1.93 µM and the TGI was over 100 µM.
`COc1cc(/C=C(\C#N)c2ccccc2)cc(OC)c1` gave a TGI of over 100 µM.
